# Patent US20040236519A1, “Libraries of confomationally constrained peptides, chiral azacrowns, and peptidomimetics and methods of making the same” (priority 2001, published 2004)
# What was measured:
# [1] = target: Potassium Channel, Ca2+ Act., VS; settings: cited from earlier work
# [2] = target: Potassium Channel, ATP-Sensitive; settings: cited from earlier work
# [3] = Giblin et al., cited from earlier work; for binding affinity reduced compared with the disulfide parent: rhenium complex
# [4] = Competitive metal binding by ESI-MS; format: physicochemical
# Method: The ability of these peptides to bind metals was determined by electrospray-ionization mass spectrometry (hereinafter “ESI-MS”). ESI-MS has been successfully used to study a wide variety of non-covalent interactions owing to the gentle nature of the electrospray-ionization process that allows non-covalent complexes to be introduced intact into the gas phase. Thus, ESI-MS provides equilibrium information about the solution and the relative abundance of different peptide-metal binding complexes. The peptide ligands were dissolved in 50% CH3CN or methanol and then diluted to 10 mM solution with 1 mM of CH3COONH4/10% CH3OH solution. Stock solutions (200 uM) of the metal ions (CuSO4, NiSO4, ZnSO4, HgSO4. Co(NO3)2) were made. 40 ul of the ligand solution was mixed with 40 ul of the metal-ion solution, diluted with methanol or 1 mM of CH3COONH4. The solution was treated with KOH to form the complex. Competitive binding was used to study the relative metal-binding properties of each ligand by adding two different metal ions.
# Sodium, Site 2 [5] = settings: cited from earlier work
# Sodium, Site 2 [6] = test: Radioligand binding assay, sodium channel site 2 (NOVASCREEN); settings: 1.0E−5 (single dose 10 μM); average, N = 2
# Method: (§1) Evaluation of M40403 and M40401 in the following radioligand binding assays: potassium channels (ATP-sensitive, Ca2+Act., VI, potassium channel, CA2+Act., VS) and sodium channels (site 1 and site 2). M40403 and M40401 were tested at a single does of 10 µM. The list of an appropriate radioligand used in each ion channel assay is shown in Table 1. […].
# (§2) Screening assays can provide valuable information about a compound's biological activity and selectivity. NOVASCREEN Biosciences Corporation of Hanover, Md. was used for these assays. To understand and assess the data, these guidelines are to be used for interpretation of the data presented:
# (§3) In most assays, our standard baseline range runs from −20% to +20% inhibition of binding or enzyme activity. […]. NOVASCREEN's assays are designed to test for inhibition of binding or enzyme activity. […]. NOVASCREEN uses a criteria of 50% inhibition (or greater) to qualify a compound as active. Active compounds tested at multiple concentrations can generally be expected to show a dose-dependent response and such follow-up studies are recommended.
# human opioid δ receptor = target: T1, human opioid δ receptor (Homo sapiens, UniProt P41143); test: Opioid receptor binding, [3H]Cl-DPDPE, CHO cell membranes
# T1 construct: expressed in transfected cells; host or cells: CHO cells, membranes
# Method: (§4) Evaluation of M40403 binding affinity for opioid receptors in vitro radioligand binding assays. Referring to FIGS. 6-11, receptor binding studies were conducted on human opioid receptors transfected into Chinese hamster ovary (CHO) cells. The μ cell line is maintained in Ham's F-12 medium supplemented with 10% fetal bovine serum and 400 μg/ml GENETICIN (G418 sulfate). The δ cell line is maintained in Ham's F-12 medium supplemented with 10% fetal bovine serum and 500 μg/ml hygromycin B. The k cell line is maintained in Dulbecco's minimal essential medium (DMEM) supplemental with 10% fetal bovine serum, 400 μg/ml GENETICIN (G418 sulfate) and 0.1% penicillin/streptomycin. All cell lines are grown to full confluency, then harvested for membrane preparation. The membrane for binding assays is prepared in 50 mM Tris buffer, pH 7.7. Cells are harvested by scraping the plates with a rubber policeman and then centrifuged at 500×g for 10 minutes. The cell pellet is suspended in buffer A or Tris buffer, homogenized in a Polytron Homogenizer, and centrifuged at 20,000×g for 20 minutes. The cell pellet is washed in buffer A or Tris, centrifuged at 20,000×g for another 20 minutes and finally suspended in a small amount of buffer to determine protein content. Membrane is aliquoted in small vials at a concentration of 6 mg/ml per vial and stored at −70° C. and used as needed.
# (§5) Routine binding assays were conducted using [^3H]DAMGO, [^3H]C1-DPDPE, and [^3H]U69,593 to bind to μ, δ and k receptors, respectively. […] Filters are dried overnight before radioactivity levels are determined. Nonspecific binding is determined by using 1.0 μM of the unlabeled counterpart of each radioligand.
# (§6) Full characterization of compounds includes analysis of the data for IC50 values and Hill coefficients by using the program PRIMS. Ki values are calculated using the Cheng Prusoff transformation: [formula]
# (§7) where L is radioligand concentration and Kd is the binding affinity of the radioligand, as determined previously by saturation analysis. […]
# [7] = test system: Potassium Channel, Ca2+ Act., VI; test: Radioligand binding assay, potassium channel, Ca2+ Act., VI (NOVASCREEN); settings: 1.0E−5 (single dose 10 μM); average, N = 2
# Method: as §1, §2, §3
# human opioid μ receptor = target: T2, human opioid μ receptor (Homo sapiens, UniProt P35372); test: Opioid receptor binding, [3H]DAMGO, CHO cell membranes
# T2 construct: expressed in transfected cells; host or cells: CHO cells, membranes
# Method: as §4, §5, §6, §7
# [8] = test system: Potassium Channel, Ca2+ Act., VS; test: Radioligand binding assay, potassium channel, Ca2+ Act., VS (NOVASCREEN); settings: 1.0E−5 (single dose 10 μM); average, N = 2
# Method: as §1, §2, §3
# Sodium, Site 1 = test: Radioligand binding assay, sodium channel site 1 (NOVASCREEN); settings: 1.0E−5 (single dose 10 μM); average, N = 2
# Method: as §1, §2, §3
# human opioid k receptor = target: T3, human opioid k receptor (Homo sapiens, UniProt P41145); test: Opioid receptor binding, [3H]U69,593, CHO cell membranes; settings: human receptor in CHO cell membranes, Cheng Prusoff
# T3 construct: expressed in transfected cells; host or cells: CHO cells, membranes
# Method: Evaluation of M40403 binding affinity for opioid receptors in vitro radioligand binding assays. Referring to FIGS. 6-11, receptor binding studies were conducted on human opioid receptors transfected into Chinese hamster ovary (CHO) cells. The μ cell line is maintained in Ham's F-12 medium supplemented with 10% fetal bovine serum and 400 μg/ml GENETICIN (G418 sulfate). The δ cell line is maintained in Ham's F-12 medium supplemented with 10% fetal bovine serum and 500 μg/ml hygromycin B. The k cell line is maintained in Dulbecco's minimal essential medium (DMEM) supplemental with 10% fetal bovine serum, 400 μg/ml GENETICIN (G418 sulfate) and 0.1% penicillin/streptomycin. […]
# as §5, §6, §7
# [9] = test system: Potassium Channel, ATP-Sensitive; test: Radioligand binding assay, potassium channel, ATP-sensitive (NOVASCREEN); settings: 1.0E−5 (single dose 10 μM); average, N = 2
# Method: as §1, §2, §3
# [10] = target: Potassium Channel, Ca2+ Act., VI; settings: radioligand of the assay; cited from earlier work
# [11] = human receptor in CHO cell membranes, Cheng Prusoff
# T1 sequence (P41143 whole entry): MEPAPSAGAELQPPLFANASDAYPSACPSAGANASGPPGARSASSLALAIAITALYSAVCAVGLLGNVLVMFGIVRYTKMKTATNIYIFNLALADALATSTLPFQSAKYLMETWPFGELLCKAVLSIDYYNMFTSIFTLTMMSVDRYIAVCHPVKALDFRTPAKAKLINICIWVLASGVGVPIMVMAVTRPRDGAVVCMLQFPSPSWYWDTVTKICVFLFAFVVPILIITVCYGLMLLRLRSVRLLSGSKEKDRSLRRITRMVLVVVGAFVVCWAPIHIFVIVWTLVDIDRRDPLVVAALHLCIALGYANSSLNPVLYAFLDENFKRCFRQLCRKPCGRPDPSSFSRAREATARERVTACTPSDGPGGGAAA
# T2 sequence (P35372 whole entry): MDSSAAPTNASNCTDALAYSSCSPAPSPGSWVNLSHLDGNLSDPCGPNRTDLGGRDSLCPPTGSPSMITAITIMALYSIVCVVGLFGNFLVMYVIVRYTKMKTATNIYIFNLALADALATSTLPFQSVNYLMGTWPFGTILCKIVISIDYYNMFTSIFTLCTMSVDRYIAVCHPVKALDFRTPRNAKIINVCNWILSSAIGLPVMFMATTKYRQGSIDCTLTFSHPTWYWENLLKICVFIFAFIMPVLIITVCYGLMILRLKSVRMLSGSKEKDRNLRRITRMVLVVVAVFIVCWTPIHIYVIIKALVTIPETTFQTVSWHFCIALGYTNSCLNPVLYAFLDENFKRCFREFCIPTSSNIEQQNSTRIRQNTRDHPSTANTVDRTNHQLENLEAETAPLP
# T3 sequence (P41145 whole entry): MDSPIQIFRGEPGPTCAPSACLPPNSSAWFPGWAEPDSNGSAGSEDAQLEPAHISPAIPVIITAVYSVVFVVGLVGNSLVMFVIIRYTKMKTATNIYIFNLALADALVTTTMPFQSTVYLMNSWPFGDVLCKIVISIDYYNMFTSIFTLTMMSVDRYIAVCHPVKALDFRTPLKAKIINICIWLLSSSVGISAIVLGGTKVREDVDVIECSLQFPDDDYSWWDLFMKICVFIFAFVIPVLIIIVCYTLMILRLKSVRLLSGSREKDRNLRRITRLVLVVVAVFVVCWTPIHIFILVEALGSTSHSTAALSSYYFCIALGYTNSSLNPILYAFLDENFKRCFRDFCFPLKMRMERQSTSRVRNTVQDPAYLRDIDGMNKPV
molecule,measurement,setting,value
[125I]Charybdotoxin,Kd,[1]; radioligand of the assay,0.1 nM
COc1ccc(Cl)cc1C(=O)NCCc1ccc(S(=O)(=O)NC(=O)NC2CCCCC2)cc1 [[3H]Glibenclamide],Kd,[2]; radioligand of the assay,0.25 nM
"[Cys^4,10, D-Phe7]-α-Msh4-13",binding affinity reduced compared with the disulfide parent,[3],approximately 100 fold
COc1ccc(Cl)cc1C(=O)NCCc1ccc(S(=O)(=O)NC(=O)NC2CCCCC2)cc1 [Glibenclamide],Ki,"[2]; reference compound, radioligand [3H]Glibenclamide, read-out: Ki (M) Ref. Cpd.",7.85e-10 M
Charybdotoxin,Ki,"[1]; reference compound, radioligand [125I]Charybdotoxin, read-out: Ki (M) Ref. Cpd.",5.12e-10 M
H-Val-Ψ(CONOH)-Phe-Ala-Pro-Leu-CONOH [compound 14],metal-binding ability,"[4]; among the peptides containing two hydroxymate groups, competitive binding",strongest metal-binding ability
same,metal-binding specificity,[4]; competitive binding with two different metal ions,Cu(II)>Co(II)>Fe(III)>Cd(II)>Zn(II)>Ni(II)
CCN1C[C@]2(COC)[C@H](O)C[C@H](OC)[C@@]34[C@@H]5C[C@@]6(O)[C@H](OC(=O)c7ccccc7)[C@@H]5[C@@](OC(C)=O)([C@@H]([C@H](OC)[C@H]23)[C@@H]14)[C@@H](O)[C@@H]6OC [Aconitine],Ki,"Sodium, Site 2 [5]; reference compound, radioligand [3H]Bactrachotoxin A 20-a-Benzo, read-out: Ki (M) Ref. Cpd.",8.38e-07 M
[3H]Bactrachotoxin A 20-a-Benzo,Kd,"Sodium, Site 2 [5]; radioligand of the assay",32 nM
"[Cys^3,4,10, D-Phe7]-α-Msh4-13",binding affinity improved over the previous rhenium complex,[3],25 fold
same,binding affinity reduced compared with the disulfide parent,[3],4 fold
[Cl-].[Cl-].[Mn+2].c1cc2nc(c1)CN[C@@H]1CCCC[C@H]1NCCN[C@@H]1CCCC[C@H]1NC2 [M40403],Percent Inhibition,"Sodium, Site 2 [6]",93.84%
same,IC50,"human opioid δ receptor; Hot Ligand [3H]DPDPE-CL, Jul. 2, 1999 and confirmation Jul. 5, 1999, read-out: IC50, Delta Binding",> 10 µM
same,Ki,human opioid δ receptor; [11],> 10000 nM
same,affinity for delta receptors,human opioid δ receptor; summary in words,no significant affinity
same,Percent Inhibition,[7],30.35%
same,IC50,"human opioid μ receptor; Hot Ligand [3H]DAMGO, Jul. 2, 1999 and confirmation Jul. 5, 1999, read-out: IC50, MU Binding",> 10 µM
same,Ki,human opioid μ receptor; [11],> 10000 nM
same,affinity for mu receptors,human opioid μ receptor; summary in words,no significant affinity
same,Percent Inhibition,[8],9.72%
same,Percent Inhibition,"Sodium, Site 1",−19.68%
same,Ki,human opioid k receptor,~240 nM
same,Ki,"human opioid k receptor; listed as 20,636",240 ± 121 nM
same,Percent Inhibition,[9],4.67%
[125I]Apamin,Kd,[10],0.07 nM
